The source of these data is US20140248292A1, “COMPOSITIONS AND METHODS FOR TREATING CANCER” (priority 2013, published 2014).

The test system of assay [1] is 2774 ovarian peritoneal carcinomatosis. The assay is described as follows: 2774 ovarian peritoneal carcinomatosis mouse model. It counts as in vivo. The conditions noted are these: 2774 model; treatment initiated on day 2. The source says:
The therapeutic potential of intraperitoneal administration of MOC31PE was then investigated in two experimental mouse models based on the ovarian cancer cell lines B76 (FIG. 15) and 2774 (FIG. 16). The animals were divided into three groups. Day 1 the animals were intraperitoneal injected with B76 cancer cell to mimic the situation in patients after cytoreductive surgery, were non-visible cancer cells are still left. MOC31PE treatment was initiated the day after (Day 2) or on day 8, as indicated by giving either MOC31PE 50 μg/kg intraperitoneal injection (i.p.) or 32 μg/kg intravenous injection (i.v.). […] Disease progression, as increase of abdominal size and other signs of symptoms, were measured twice weekly. Body weight was recorded throughout the experiments. Survival as a function of treatment was analysed by Kaplan-Meier plots.

A further assay has as its system PMP-2 model. The assay is described as follows: In vivo tumor growth, orthotopic PMP-2 model, single injection.
A further assay has as its system PMP-1 model. The assay is described as follows: In vivo tumor growth, orthotopic PMP-1 model, single i.p. injection. The conditions noted are these: both tested doses (2.5 and 5 mg/kg i.p.).
In the next assay the test system is PMCA-1 model. The assay is described as follows: In vivo tumor growth, orthotopic PMCA-1 model, single i.p. injection. The conditions noted are these: 5 mg/kg vs 2.5 mg/kg i.p.
Assay [2] deals with orthotopic models of mucinous peritoneal surface malignancies. Briefly: In vivo tumor growth, orthotopic models of mucinous peritoneal surface malignancies (model not singled out). The conditions noted are these: all models; 10 mg/kg i.p.
The test system of assay [3] is mucinous tumor tissue (PMP-2, PMCA-2, PMP-3, PMP-6). The assay is described as follows: Ex vivo PARP cleavage, Western immunoblot. The conditions noted are these: 24 h, PMP-2 xenograft tissue and both patient samples. It counts as cell-based, human. As for the experimental part: The mucinous cell suspension was seeded in 48-well plates (500 μl/well). […] Thereafter, the cells were lysed by using an SDS boiling method as described previously (Andersson2009). In brief, cell pellets were resuspended in lysis buffer (2% SDS, 1 mM Na3VO4, and 10 mM Tris-Cl (pH 7.6)), which was held at 100° C. when added, and the lysates were boiled for 5 min. After six passages through a 20G syringe on ice, the lysates were cleared by centrifugation. Protein concentrations were then determined using the BCA (bicinchoninic acid) protein assay (Pierce, Rockford, Ill.). The lysates were snap frozen in liquid N2 and kept at −70° C. A portion (15 μg) of each protein lysate was fractionated by 4-12% NuPAGE Bis-Tris gel electrophoresis (Invitrogen, Carlsbad, Calif.), and subsequently transferred by electroblotting to Immobilon membranes (Millipore, Bedford, Mass.). The filters were probed with an anti-PARP antibody (Roche Diagnostics, Mannheim, Germany), anti-EpCAM (MOC31, IQ Corporation, Groningen, the Netherlands) or with anti-alpha tubulin (Calbiochem, La Jolla, Calif.). Immune complexes were detected with an appropriate HRP-coupled secondary antibody. Peroxidase activity was visualized with […] (Amersham Pharmacia Biotech, Buckinghamshire, UK). The western blots were probed with anti-α-tubulin antibody to confirm equal loading and transfer of samples.

In the case of `CC(=O)O[C@H]1C(=O)[C@@]2(C)[C@H]([C@H](OC(=O)c3ccccc3)[C@]3(O)C[C@H](OC(=O)[C@H](O)[C@@H](NC(=O)c4ccccc4)c4ccccc4)C(C)=C1C3(C)C)[C@]1(OC(C)=O)CO[C@@H]1C[C@@H]2O` [Ptx, Paclitaxel], the “survival / disease progression, combinatorial treatment experiment” value in assay [1] was “significant effect on disease progression”.

`CO[C@@]12[C@H](COC(N)=O)C3=C(C(=O)C(C)=C(N)C3=O)N1C[C@@H]1N[C@@H]12` [Mitomycin C, mitomycin C]: the “inhibition of tumor growth” value in the assay on PMP-2 model (all tested doses, single i.p.) is given as “substantial inhibition of tumor growth”. For the same molecule, the “tumor growth within the observation period” value is “almost completely inhibited tumor growth” in the assay with PMP-2 model (both tested doses (2.5 and 5 mg/kg i.p.)); “almost completely inhibited tumor growth” with PMP-1 model. Also, the “efficacy, comparison of doses” value in the assay on PMCA-1 model is 5 mg/kg was more efficacious than 2.5 mg/kg.

Consider `O=C1[O][Pt]2([NH][C@@H]3CCCC[C@H]3[NH]2)[O]C1=O` [Oxaliplatin, oxaliplatin], for which the “growth inhibition (growth indices) compared to vehicle-treated animals” value in assay [2] is given as “only slight reduction of growth indices”.

Take pseudomonas exotoxin A [PE toxin]: the “PARP cleavage / PARP inactivation (Western immunoblot)” value in assay [3] is recorded as “No PARP inactivation was evident”.
